# “And” between values parts separate entries of the source, which are not always exact repeats. Equal values may be shown once.
# Tests used:
# [1] = system: human prostate cancer PC-3 cells; experiment: Xenograft tumor assay, PC-3 cells in BALB/c (nu/nu) mice; assay type: in vivo
# Excerpt: (§1) Five week-old BALB/c (nu/nu) male mice purchased from Charles River Laboratories (Wilmington, Mass.) were housed in a barrier facility with 12-h light/dark cycles; tap water and diets provided ad libitum. They were randomly divided into two groups of nine mice. […] The diets began one week prior to inoculation of PC-3 cells and continued until termination of experiments. The xenografted tumors were established by a single s.c. injection in the flank of 0.8×10^6 PC-3 cells suspended in ice-cold matrigel (sigma). The tumor volumes were measured every 7-8 days and calculated by length×width×height×0.5236. Animal body weights were recorded weekly and at autopsy; food consumption was determined twice per week. Two hours before the mice were euthanized, 5-bromo-2′-deoxyuridine (BrdU) (10 mg/kg body weight) was injected in the peritoneum for in vivo labeling of proliferating cells. At autopsy, xenograft tumors were weighed and frozen in liquid nitrogen or fixed in 10% formalin and embedded in paraffin. The BrdU-labeled cells of paraffin embedded tissues on slides were detected employing a monoclonal anti-BrdU antibody from a BrdU detection kit (Roche Molecular Biochemicals) according to manufacturer's direction. The mean numbers of labeled cells from multiple fields were calculated. The comparisons between control and experimental groups were performed with Student's t test.
# [2] = Excerpt: as §1
# xenografted PC-3 tumors [3] = experiment: Histology and immunohistochemical staining of xenografted tumor tissue for immune cells and bound mouse Ig; assay type: in vivo, mice
# Excerpt: as §1
# The changes of B and NK cells were further examined in the-frozen and paraffin embedded xenografted tumor tissues by for immunohistochemical staining. Mouse B cells were identified with a primary monoclonal rat anti-B220 antibody, and NK cells of immunodeficient mice detected with a rat anti-mouse CD90.2 (18) primary antibody (BD PharMingen). A biotin-conjugated goat anti-rat Ig was used as a secondary antibody, with chromogen color development using an ImmunoCruz Staining System (Santa Cruz Biotechnology). A rat IgG2aK was used as an isotype control. The binding of mouse Ig to xenografted tumor cells was determined by a direct antibody staining method using a biotinylated goat anti-mouse Ig (BD PhaMingen), or an isotype Ig control.
# PC-3 cells = experiment: Cell cycle phases of cultured PC-3 cells by flow cytometry; assay type: cell-based, human; conditions: exposure for 24 hours in cultures
# Procedure: The product was crystallized from hexane, and purity established by HPLC, NMR and MS; purity was greater than 98%. A human prostate cancer cell line, androgen-independent PC-3 was used as antigen in this invention. PC-3 cells were seeded at 1.5×10^5 cells/ml in RPMI-1640 containing 15% heat inactivated fetal calf serum with 1% penicillin (10,000 units/ml) and streptomycin (10,000 μg/ml) (15). Cell cycle phase determination was performed using a BD FACScan cytometer according to published procedures (16, 17). The cells were fixed with 80% ethanol at 4° C. and incubated on ice before the DNA was stained with propidium iodide (50 μg/ml).
# [4] = system: B cells and NK cells in the peripheral blood; experiment: B and NK cells in peripheral blood by direct fluorescent antibody flow cytometry; assay type: in vivo, mice
# Excerpt: as §1
# Monoclonal antibodies against mouse B cell antigen CD19 or against Pan NK cell antigen CD49b were used. A mouse isotype control was used as a background.
# The quantities of B cells and NK cells in the peripheral blood of all mice were determined by direct immunofluorescent antibody technique with the flow cytometric method. Monoclonal antibodies against mouse B cell antigen CD19 or against mouse Pan NK cell antigen CD49b were used.
# prostate cancer cells = conditions: earlier report (ref. 12); cited from earlier work
# xenografted PC-3 tumors [5] = experiment: Apoptotic cells in xenografted tumors by TUNEL; assay type: in vivo, mice; conditions: nine weeks PEITC-NAC diet
# Procedure: The apoptotic cells of xenografted tumors were determined with paraffin embedded tissue slides by the characteristic nucleus morphology, and by the presence of DNA strand breaks using the terminal deoxynucleotidyl tranferase-mediated biotinylated UTP nick end labeling (TUNEL). An in situ detection kit from Roche Molecular Biochemicals, Indianapolis, Ind. was employed according to manufacturer's direction (17). Multiple fields, but not necrotic tissues, were determined for apoptotic cells.
# xenografted PC-3 tumors [6] = experiment: Proliferating (BrdU-labeled) and mitotic cells in xenografted tumors; assay type: in vivo, mice
# Excerpt: as §1
# PC-3 cell antigens = experiment: Serum antibodies against cultured PC-3 cells, indirect immunofluorescence with flow cytometry; assay type: in vivo, mice
# Procedure: The reaction of serum antibodies from mice on the experimental or control diet with cultured PC-3 cells was analyzed with an indirect immunofluorescent antibody technique. A fluoresecin-labeled goat IgG-(Fab′)2 antibody against mouse Ig was used as the second antibody. PC-3 cells stained with a nonspecific mouse IgG as the first antibody were used as a background. The proportion of the positively stained cells and the mean fluorescence intensity were analyzed with the intensity channel on a flow cytometer.
# Mouse sera were incubated with cultured PC-3 cells to detect the presence and reactivity of antibodies against PC-3 antigens using an indirect immunofluorescent antibody technique. The proportion of the positively stained cells and the mean fluorescence intensity were analyzed by a flow cytometric method. […] For example, at the titer of 20, the antisera from mice on experimental diet detected approximately 24-38% cells while approximately 7-16% cells detected with the sera from mice on the control diet.
# [7] = system: PARP (poly (ADP-ribose) polymerase); experiment: Western blot of PARP cleavage in xenografted tumors; assay type: in vivo, human; conditions: pooled experimental tumors vs control
# Procedure: (§2) The protein levels of xenografts were determined by Western blot analyses using standard procedures (19). Total proteins were prepared from each group of pooled individual xenografts of equal weight. The tissues were homogenized in the presence of a lysis buffer with protease inhibitors (17) and lysates collected after centrifugation at 4° C. Polyclonal antibodies against human p21^WAF-1/Cip-1, p27^Kip1, cyclin E, and an anti-cyclin D1 cross reactive with cyclins D2 and D3, an anti-Rb reactive with both phosphorylated and non-phosphorylated proteins, and an antibody against intact poly (ADP-ribose) polymerase (PARP) and the 89 kDa fragment were purchased from Santa Cruz Biotechnology. Preferably the endogenous cyclin-dependent kinase inhibitors are p151NK4B, p161NK4A, p181NK4C, p191NK4D, p21WAF-1/Cip-1, p27Kip1 and/or p57 that inhibit cyclin-dependent kinases.
# Rb = experiment: Western blot of xenografted tumors: Rb phosphorylation; assay type: in vivo, human; conditions: experimental tumors vs controls
# Procedure: as §2
# cyclin D1 = experiment: Western blot of xenografted tumors: cyclin D1; assay type: in vivo, human; conditions: pooled experimental tumors vs controls
# Procedure: as §2
smiles,measurement,setting,value
"CC(=O)N[C@@H](CSC(=S)NCCc1ccccc1)C(=O)O [PEITC-NAC, N-acetylcysteine conjugate of phenethyl isothiocyanate]",tumor incidence,"[1]; PEITC-NAC diet 8 μmol/g, control 100%",88%
same,time for tumors to be palpable,"[1]; after inoculation of PC-3 cells, PEITC-NAC diet 8 μmol/g, control 7-10 days",7 to 22 days
same,tumor volumes vs control tumors,"[1]; during study period, P<0.05",smaller
same,mice with tumor inhibition,[1]; mice fed with PEITC-NAC diet,100%
same,"daily food consumption, less than control mice",[2]; PEITC-NAC diet,approximately 6.5%
same,average weights of kidneys and spleens vs controls,"[2]; at autopsy, P>0.13",the difference was not significant
same,average body weight at termination,"[2]; experimental mice, control mice 21.89 g",20.93 g
same,behavior of animals,"[2]; throughout the study period, PEITC-NAC diet",no signs of unusual behavior
same,lymphocytes around tumor nodules,"xenografted PC-3 tumors [3]; H & E sections, after nine weeks of PEITC-NAC diet, not in control mice",surrounded by aggregates of small lymphocytes
same,NK cell receptor NKG2A/C/E among infiltrating cells,"xenografted PC-3 tumors [3]; immunohistochemical staining, PEITC-NAC treated mice",demonstrated among cells infiltrating around the tumor nodules
same,B220 staining of lymphocytes around tumor nodules,"xenografted PC-3 tumors [3]; immunohistochemical staining, experimental tumors",great majority of them were B cells bearing marker B220
same,CD90.2 staining of lymphocytes around tumor nodules,"xenografted PC-3 tumors [3]; immunohistochemical staining, marker for T and NK cells",Small quantity of lymphocytes stained positive for CD90.2
same,mouse immunoglobulins bound to xenografted tumor cells,"xenografted PC-3 tumors [3]; immunoperoxidase staining, experimental but not control tumors",bound mouse immunoglobulins
same,cell cycle phases of PC-3 cells,PC-3 cells,concentration-related reduction of S- and G2M-phases
same,"Mean of NK Cells (%), average of experimental mice","[4]; average of 3 experimental mice, control average 24.4, PEITC-NAC diet 8 μmol/g",30.5%
same,"Mean of B Cells (%), average of experimental mice","[4]; average of 3 experimental mice, control average 30.5, PEITC-NAC diet 8 μmol/g",42.0%
same,Mean of B Cells (%),"[4]; individual experimental mice, peripheral blood, CD19, % of total mononuclear cells, PEITC-NAC diet 8 μmol/g of AIN-76A, 30 days, PC-3 xenografted nude mice",45.8% and 42.1% and 38.3%
same,Mean of NK Cells (%),"[4]; individual experimental mice, peripheral blood, CD49b, % of total mononuclear cells, PEITC-NAC diet 8 μmol/g of AIN-76A, 30 days, PC-3 xenografted nude mice",27.6% and 38.0% and 26.0%
same,growth of prostate cancer cells in cultures,prostate cancer cells,significantly inhibited
same,elevation of apoptotic rate vs control tumors,xenografted PC-3 tumors [5],approximately two
same,average apoptotic rate of tumors,"xenografted PC-3 tumors [5]; control 14.4%, P=0.02",29.29%
same,"proliferating cells, less than in control mice","xenografted PC-3 tumors [6]; BrdU labeling, tumors at autopsy",approximately 75%
same,mitotic figures,"xenografted PC-3 tumors [6]; tumors from PEITC-NAC fed mice, control greater than five per field",three
same,antisera titer against PC-3 cell antigens,"PC-3 cell antigens; 6 weeks after injection of PC-3 cells, vs basal control diet",higher titer
same,mean fluorescence on stained PC-3 cells,PC-3 cell antigens; antisera from experimental diet mice vs control mice sera,significantly more intense
same,PC-3 cells detected by antisera,"PC-3 cell antigens; serum titer of 20, mice on experimental diet, control diet 7-16%",24-38%
same,cleaved PARP fragments incl. 89 kDa fragment,[7],Significant increase of the cleaved fragments
same,Rb phosphorylation,Rb,significant reduction of Rb phosphorylation
same,reduced expression of cyclin D1,cyclin D1,32%
